# Data as given in US20090042964A1, “AMINO-5-[SUBSTITUTED-4-(DIFLUOROMETHOXY)PHENYL]-5-PHENYLIMIDAZOLONE COMPOUNDS AS BETA-SECRETASE INHIBITORS” (Wyeth, priority 2007, published 2009).
# pIC50: −log10 of the molar value.
# Molecular target: human BACE1 (Homo sapiens, UniProt P56817)
# Test: Fluorescent kinetic assay, evaluation of BACE1 binding affinity of test compounds
# Type: biochemical
# Conditions: 10 nM human BACE1, 25 μM substrate WABC-6, pH 4.5, room temperature; read-out: BACE1 IC50
# In short: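 Kinetic fluorescence assay: enzyme added last to inhibitor and substrate mix, reading started immediately; substrate at 100 μM working dilution (25 μL in 100 μL total). Buffer 66.7 mM Na-acetate pH 4.5 with 0.0667% CHAPS for inhibitor and enzyme dilutions; enzyme stock quantified at 280 nm.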
# Chain of human BACE1 (P56817 46-501): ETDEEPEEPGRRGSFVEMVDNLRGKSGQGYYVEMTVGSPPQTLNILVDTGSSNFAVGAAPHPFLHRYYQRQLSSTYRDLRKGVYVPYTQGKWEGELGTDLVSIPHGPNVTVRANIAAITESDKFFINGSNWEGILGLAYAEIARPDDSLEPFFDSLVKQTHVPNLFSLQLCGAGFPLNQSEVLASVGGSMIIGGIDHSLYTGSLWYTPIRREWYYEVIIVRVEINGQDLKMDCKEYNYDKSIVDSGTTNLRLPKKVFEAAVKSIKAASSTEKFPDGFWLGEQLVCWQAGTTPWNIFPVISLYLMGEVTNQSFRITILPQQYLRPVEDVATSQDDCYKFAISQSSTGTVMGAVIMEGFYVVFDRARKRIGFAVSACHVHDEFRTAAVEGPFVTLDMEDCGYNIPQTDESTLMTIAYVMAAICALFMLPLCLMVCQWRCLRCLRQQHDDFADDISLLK
row,pIC50,Structure (SMILES)
1,> 7.00,"CN1C(=O)C(c2ccc(F)c(OCCCF)c2)(c2ccc(OC(F)F)c(C3CC3)c2)N=C1N (stereo not shown) [Example 85, 2-amino-5-[3-cyclopropyl-4-(difluoromethoxy)phenyl]-5-[4-fluoro-3-(3-fluoropropoxy)phenyl]-3-methyl-3,5-dihydro-4H-imidazol-4-one]"
2,> 7.00,"CCCC#Cc1cc(C2(c3ccc(OC(F)F)c(CCF)c3)N=C(N)N(C)C2=O)ccc1F (stereo not shown) [Example 88, 2-amino-5-[4-(difluoromethoxy)-3-(2-fluoroethyl)phenyl]-5-(4-fluoro-3-pent-1-yn-1-ylphenyl)-3-methyl-3,5-dihydro-4H-imidazol-4-one]"
3,> 7.00,"CCC#Cc1cc(C2(c3ccc(OC(F)F)c(CCF)c3)N=C(N)N(C)C2=O)ccc1F (stereo not shown) [Example 89, 2-amino-5-(3-but-1-yn-1-yl-4-fluorophenyl)-5-[4-(difluoromethoxy)-3-(2-fluoroethyl)phenyl]-3-methyl-3,5-dihydro-4H-imidazol-4-one]"
4,> 7.00,"CC(C)CC#Cc1cc(C2(c3ccc(OC(F)F)c(CCF)c3)N=C(N)N(C)C2=O)ccc1F (stereo not shown) [Example 90, 2-amino-5-[4-(difluoromethoxy)-3-(2-fluoroethyl)phenyl]-5-[4-fluoro-3-(4-methylpent-1-yn-1-yl)phenyl]-3-methyl-3,5-dihydro-4H-imidazol-4-one]"
5,> 7.00,"CN1C(=O)C(c2ccc(F)c(C#CCCF)c2)(c2ccc(OC(F)F)c(CCF)c2)N=C1N (stereo not shown) [Example 91, 2-amino-5-[4-(difluoromethoxy)-3-(2-fluoroethyl)phenyl]-5-[4-fluoro-3-(4-fluorobut-1-yn-1-yl)phenyl]-3-methyl-3,5-dihydro-4H-imidazol-4-one]"
6,> 7.00,"CN1C(=O)C(c2ccc(F)c(C#CC3CC3)c2)(c2ccc(OC(F)F)c(CCF)c2)N=C1N (stereo not shown) [Example 92, 2-amino-5-[3-(cyclopropylethynyl)-4-fluorophenyl]-5-[4-(difluoromethoxy)-3-(2-fluoroethyl)phenyl]-3-methyl-3,5-dihydro-4H-imidazol-4-one]"
7,6.00 to 6.96,"CN1C(=O)C(c2ccc(F)c(O)c2)(c2ccc(OC(F)F)c(Cl)c2)N=C1N (stereo not shown) [Example 95, 2-Amino-5-[3-chloro-4-(difluoromethoxy)phenyl]-5-(4-fluoro-3-hydroxyphenyl)-3-methyl-3,5-dihydro-4H-imidazol-4-one]"
8,> 7.00,"CCOc1cc(C2(c3ccc(OC(F)F)c(Cl)c3)N=C(N)N(C)C2=O)ccc1F (stereo not shown) [Example 96, 2-Amino-5-[3-chloro-4-(difluoromethoxy)phenyl]-5-(3-ethoxy-4-fluorophenyl)-3-methyl-3,5-dihydro-4H-imidazol-4-one]"
9,> 7.00,"CCCOc1cc(C2(c3ccc(OC(F)F)c(Cl)c3)N=C(N)N(C)C2=O)ccc1F (stereo not shown) [Example 97, 2-Amino-5-[3-chloro-4-(difluoromethoxy)phenyl]-5-(4-fluoro-3-propoxyphenyl)-3-methyl-3,5-dihydro-4H-imidazol-4-one]"
10,> 7.00,"CN1C(=O)C(c2ccc(OC(F)F)c(Cl)c2)(c2ccc(F)c(OCCCF)c2)N=C1N (stereo not shown) [Example 98, 2-Amino-5-[3-chloro-4-(difluoromethoxy)phenyl]-5-[4-fluoro-3-(3-fluoropropoxy)phenyl]-3-methyl-3,5-dihydro-4H-imidazol-4-one]"
11,> 7.00,"CN1C(=O)C(c2ccc(OC(F)F)c(Cl)c2)(c2ccc(F)c(OCCF)c2)N=C1N (stereo not shown) [Example 99, 2-Amino-5-[3-chloro-4-(difluoromethoxy)phenyl]-5-[4-fluoro-3-(2-fluoroethoxy)phenyl]-3-methyl-3,5-dihydro-4H-imidazol-4-one]"
12,> 7.00,"CN1C(=O)C(c2ccc(OC(F)F)c(Cl)c2)(c2ccc(F)c(OCC(F)F)c2)N=C1N (stereo not shown) [Example 100, 2-Amino-5-[3-chloro-4-(difluoromethoxy)phenyl]-5-[3-(2,2-difluoroethoxy)-4-fluorophenyl]-3-methyl-3,5-dihydro-4H-imidazol-4-one]"
13,> 7.00,"CCOc1cc(C2(c3ccc(OC(F)F)c(C)c3)N=C(N)N(C)C2=O)ccc1F (stereo not shown) [Example 101, 2-Amino-5-[4-(difluoromethoxy)-3-methylphenyl]-5-(3-ethoxy-4-fluorophenyl)-3-methyl-3,5-dihydro-4H-imidazol-4-one]"
14,> 7.00,"Cc1cc(C2(c3ccc(F)c(OCC4CC4)c3)N=C(N)N(C)C2=O)ccc1OC(F)F (stereo not shown) [Example 105, 2-Amino-5-[3-(cyclopropylmethoxy)-4-fluorophenyl]-5-[4-(difluoromethoxy)-3-methylphenyl]-3-methyl-3,5-dihydro-4H-imidazol-4-one]"
15,> 7.00,"Cc1cc([C@]2(c3ccc(F)c(OCC4CC4)c3)N=C(N)N(C)C2=O)ccc1OC(F)F [Example 106, (5R)-2-Amino-5-[3-(cyclopropylmethoxy)-4-fluorophenyl]-5-[4-(difluoromethoxy)-3-methylphenyl]-3-methyl-3,5-dihydro-4H-imidazol-4-one]"
16,< 6.00,"Cc1cc([C@@]2(c3ccc(F)c(OCC4CC4)c3)N=C(N)N(C)C2=O)ccc1OC(F)F [Example 107, (5S)-2-Amino-5-[3-(cyclopropylmethoxy)-4-fluorophenyl]-5-[4-(difluoromethoxy)-3-methylphenyl]-3-methyl-3,5-dihydro-4H-imidazol-4-one]"

row,pIC50,Structure (SMILES)
1,> 7.00,"Cc1cc(C2(c3ccc(F)c(OCCCF)c3)N=C(N)N(C)C2=O)ccc1OC(F)F (stereo not shown) [Example 108, 2-Amino-5-[4-(difluoromethoxy)-3-methylphenyl]-5-[4-fluoro-3-(3-fluoropropoxy)phenyl]-3-methyl-3,5-dihydro-4H-imidazol-4-one]"
2,> 7.00,"Cc1cc(C2(c3ccc(F)c(OCCF)c3)N=C(N)N(C)C2=O)ccc1OC(F)F (stereo not shown) [Example 109, 2-Amino-5-[4-(difluoromethoxy)-3-methylphenyl]-5-[4-fluoro-3-(2-fluoroethoxy)phenyl]-3-methyl-3,5-dihydro-4H-imidazol-4-one]"
3,6.00 to 6.96,"Cc1cc([C@@]2(c3ccc(F)c(OCCCF)c3)N=C(N)N(C)C2=O)ccc1OC(F)F [Example 110, (5S)-2-Amino-5-[4-(difluoromethoxy)-3-methylphenyl]-5-[4-fluoro-3-(3-fluoropropoxy)phenyl]-3-methyl-3,5-dihydro-4H-imidazol-4-one]"
4,> 7.00,"Cc1cc([C@]2(c3ccc(F)c(OCCCF)c3)N=C(N)N(C)C2=O)ccc1OC(F)F [Example 111, (5R)-2-Amino-5-[4-(difluoromethoxy)-3-methylphenyl]-5-[4-fluoro-3-(3-fluoropropoxy)phenyl]-3-methyl-3,5-dihydro-4H-imidazol-4-one]"
5,< 6.00,"Cc1cc([C@@]2(c3ccc(F)c(OCCF)c3)N=C(N)N(C)C2=O)ccc1OC(F)F [Example 112, (5S)-2-Amino-5-[4-(difluoromethoxy)-3-methylphenyl]-5-[4-fluoro-3-(2-fluoroethoxy)phenyl]-3-methyl-3,5-dihydro-4H-imidazol-4-one]"
6,> 7.00,"Cc1cc([C@]2(c3ccc(F)c(OCCF)c3)N=C(N)N(C)C2=O)ccc1OC(F)F [Example 113, (5R)-2-Amino-5-[4-(difluoromethoxy)-3-methylphenyl]-5-[4-fluoro-3-(2-fluoroethoxy)phenyl]-3-methyl-3,5-dihydro-4H-imidazol-4-one]"
7,> 7.00,"CCCOc1cc(C2(c3ccc(OC(F)F)c(C)c3)N=C(N)N(C)C2=O)ccc1F (stereo not shown) [Example 114, 2-Amino-5-[4-(difluoromethoxy)-3-methylphenyl]-5-(4-fluoro-3-propoxyphenyl)-3-methyl-3,5-dihydro-4H-imidazol-4-one]"
8,6.00 to 6.96,"CCCOc1cc([C@]2(c3ccc(OC(F)F)c(C)c3)N=C(N)N(C)C2=O)ccc1F [Example 115, (5S)-2-Amino-5-[4-(difluoromethoxy)-3-methylphenyl]-5-(4-fluoro-3-propoxyphenyl)-3-methyl-3,5-dihydro-4H-imidazol-4-one]"
9,> 7.00,"CCc1cc(C2(c3ccc(F)c(OCC(F)F)c3)N=C(N)N(C)C2=O)ccc1OC(F)F (stereo not shown) [Example 117, 2-Amino-5-[3-(2,2-difluoroethoxy)-4-fluorophenyl]-5-[4-(difluoromethoxy)-3-ethylphenyl]-3-methyl-3,5-dihydro-4H-imidazol-4-one]"
10,< 6.00,"CCc1cc([C@@]2(c3ccc(F)c(OCC(F)F)c3)N=C(N)N(C)C2=O)ccc1OC(F)F [Example 118, (5S)-2-Amino-5-[3-(2,2-difluoroethoxy)-4-fluorophenyl]-5-[4-(difluoromethoxy)-3-ethylphenyl]-3-methyl-3,5-dihydro-4H-imidazol-4-one]"
11,> 7.00,"CCc1cc([C@]2(c3ccc(F)c(OCC(F)F)c3)N=C(N)N(C)C2=O)ccc1OC(F)F [Example 119, (5R)-2-Amino-5-[3-(2,2-difluoroethoxy)-4-fluorophenyl]-5-[4-(difluoromethoxy)-3-ethylphenyl]-3-methyl-3,5-dihydro-4H-imidazol-4-one]"
12,> 7.00,"CCc1cc(C2(c3ccc(F)c(OCCCF)c3)N=C(N)N(C)C2=O)ccc1OC(F)F (stereo not shown) [Example 120, 2-Amino-5-[4-(difluoromethoxy)-3-ethylphenyl]-5-[4-fluoro-3-(3-fluoropropoxy)phenyl]-3-methyl-3,5-dihydro-4H-imidazol-4-one]"
13,< 6.00,"CCc1cc([C@@]2(c3ccc(F)c(OCCCF)c3)N=C(N)N(C)C2=O)ccc1OC(F)F [Example 121, (5S)-2-Amino-5-[4-(difluoromethoxy)-3-ethylphenyl]-5-[4-fluoro-3-(3-fluoropropoxy)phenyl]-3-methyl-3,5-dihydro-4H-imidazol-4-one]"
14,> 7.00,"CN1C(=O)C(c2ccc(F)c(OCC(F)F)c2)(c2ccc(OC(F)F)c(C3CC3)c2)N=C1N (stereo not shown) [Example 123, 2-Amino-5-[3-cyclopropyl-4-(difluoromethoxy)phenyl]-5-[3-(2,2-difluoroethoxy)-4-fluorophenyl]-3-methyl-3,5-dihydro-4H-imidazol-4-one]"
15,< 6.00,"CN1C(=O)[C@@](c2ccc(F)c(OCC(F)F)c2)(c2ccc(OC(F)F)c(C3CC3)c2)N=C1N [Example 124, (5S)-2-Amino-5-[3-cyclopropyl-4-(difluoromethoxy)phenyl]-5-[3-(2,2-difluoroethoxy)-4-fluorophenyl]-3-methyl-3,5-dihydro-4H-imidazol-4-one]"
